Consider 21 molecules from patent publication US10590113B2, “6-hydroxy-4-oxo-1,4-dihydropyrimidine-5-carboxamides as APJ agonists” (priority 2016, dated 2020).

Structures are written as SMILES.

One assay deals with T1, human APJ receptor (Homo sapiens, UniProt P35414).
T1 construct: expressed in transfected cells; host or cells: HEK293
T1 sequence (P35414 1-380): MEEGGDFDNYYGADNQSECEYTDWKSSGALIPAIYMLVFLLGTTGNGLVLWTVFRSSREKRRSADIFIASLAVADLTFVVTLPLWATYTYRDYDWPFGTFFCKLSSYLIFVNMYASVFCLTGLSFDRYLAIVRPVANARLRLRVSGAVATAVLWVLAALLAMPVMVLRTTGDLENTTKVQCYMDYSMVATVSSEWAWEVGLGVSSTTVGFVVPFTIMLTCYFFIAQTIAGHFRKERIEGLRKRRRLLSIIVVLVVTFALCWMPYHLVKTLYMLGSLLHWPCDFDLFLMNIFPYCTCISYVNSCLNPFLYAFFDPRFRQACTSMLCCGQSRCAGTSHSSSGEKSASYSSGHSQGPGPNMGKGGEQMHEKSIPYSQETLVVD
Kind of assay: Intracellular cAMP Accumulation Assay (APJ hcAMP, HTRF).
Conditions: not given
The format is cell-based. The method, then:
Intracellular cAMP Accumulation Assay
HEK293 cells stably expressing human APJ receptor were used to assess the activity of compounds. Cultured cells were detached and resuspended in the cAMP
Homogeneous Time-Resolved Fluorescence (HTRF) assay buffer (Cisbio cat; #62AM4PEJ). The assay was performed in 384-well assay plates (Perkin-Elmer; cat #6008289) according to assay protocol provided by the manufacturer. Serial dilutions of a compound together with assay buffer containing […] IBMX and 2 μM forskolin were added to each well containing 5,000 cells and incubated for 30 minutes at room temperature. Subsequently, cAMP D2 reagent was added in the lysis buffer followed by the EuK antibody (Cisbio; cat #62AM4PEJ) and incubated for 60 min. The fluorescence emission ratio was measured using fluorometer. The intracellular cAMP concentrations (compound-stimulated inhibition of forskolin-mediated cAMP production) were calculated by extrapolation from a standard curve using known cAMP concentrations. The EC50 values were obtained by fitting the data to a sigmoidal concentration-response curve with variable slope.
The EC50 value of each compound is presented at the end of the example description.
The biological activity of the exemplified compounds of this invention determined by the assay described above is shown at the end of each example.
Molecule `CCCCc1nc(=O)c(C(=O)N2CCC(c3ccc(Cl)cn3)C2)c(O)n1-c1c(OC)cccc1OC` (single isomer, unassigned) [Example 41, 2-butyl-5-(3-(5-chloropyridin-2-yl)pyrrolidine-1-carbonyl)-1-(2,6-dimethoxyphenyl)-6-hydroxypyrimidin-4(1H)-one] had an EC50 of 0.01 to 10 nM. Same read-out and setting: to `CCCCc1nc(=O)c(C(=O)N2CCC(c3ccc(Cl)cc3)C2)c(O)n1-c1c(OC)cccc1OC` (single isomer, unassigned) [Example 46, 2-butyl-5-[3-(4-chlorophenyl)pyrrolidine-1-carbonyl]-1-(2,6-dimethoxyphenyl)-6-hydroxy-1,4-dihydropyrimidin-4-one] belongs 0.01 to 10 nM.

The molecule `CCCCc1nc(=O)c(C(=O)N2CCC(c3ccncc3)C2)c(O)n1-c1c(OC)cccc1OC` (single isomer, unassigned) [Example 47, 2-butyl-1-(2,6-dimethoxyphenyl)-6-hydroxy-5-[3-(pyridin-4-yl)pyrrolidine-1-carbonyl]-1,4-dihydropyrimidin-4-one] yielded an EC50 of 0.01 to 10 nM.

The assay is the same for the next values; noted with them: HEK293 cells stably expressing human APJ receptor; inhibition of forskolin-mediated cAMP production; read-out: Human APJ cAMP EC50 potency range.
Regarding `C=CCCc1nc(O)c(C(=O)N2CC[C@H](c3ccccc3)C2)c(=O)n1-c1c(C)cccc1OC` (single isomer, unassigned) [Example 8], the EC50 lay in the range of 0.01 to 10 nM. The same measure, in the same setting: to `C=CCCc1nc(O)c(C(=O)N2CC[C@H](c3ccccc3)C2)c(=O)n1-c1c(C)cccc1OC` (single isomer, unassigned) [Example 8″] belongs 0.01 to 10 nM.

Still in this assay, the particulars now being: human APJ, intracellular cAMP accumulation; read-out: hAPJ cAMP EC50 Potency range.
Regarding `CCOCc1nc(=O)c(C(=O)N2CCC(c3cccc(Cl)c3)C2)c(O)n1-c1c(OC)cccc1OC` (racemic) [Example 26, 5-(3-(3-chlorophenyl)pyrrolidine-1-carbonyl)-1-(2,6-dimethoxyphenyl)-2-(ethoxymethyl)-6-hydroxypyrimidin-4(1H)-one], the EC50 was 0.01 to 10 nM. The same measure, in the same setting: to `COc1cccc(OC)c1-n1c(CC2CC2)nc(=O)c(C(=O)N2CCC(c3cccc(Cl)c3)C2)c1O` (racemic) [Example 28, 5-(3-(3-chlorophenyl)pyrrolidine-1-carbonyl)-2-(cyclopropylmethyl)-1-(2,6-dimethoxyphenyl)-6-hydroxypyrimidin-4(1H)-one] belongs 0.01 to 10 nM; to `CCCCc1nc(=O)c(C(=O)N2CCC(Cc3ccccc3)C2)c(O)n1-c1c(OC)cccc1OC` (racemic) [Example 73, 5-(3-benzylpyrrolidine-1-carbonyl)-2-butyl-1-(2,6-dimethoxyphenyl)-6-hydroxy-1,4-dihydropyrimidin-4-one], 0.01 to 10 nM; to `CCCCc1nc(O)c(C(=O)N2CCC(c3ccc(F)cc3)C2)c(=O)n1-c1c(CC)cccc1CC` (racemic) [Example 89, 2-butyl-3-(2,6-diethylphenyl)-5-[3-(4-fluorophenyl)pyrrolidine-1-carbonyl]-6-hydroxy-3,4-dihydropyrimidin-4-one], 0.01 to 10 nM. The same measure, in the same setting: the figure for `COc1cccc(OC)c1-n1c(COC2CC2)nc(=O)c(C(=O)N2CCC(c3ccccc3F)C2)c1O` (single isomer, unassigned) [Example 10, 2-(cyclopropoxymethyl)-1-(2,6-dimethoxyphenyl)-5-(3-(2-fluorophenyl)pyrrolidine-1-carbonyl)-6-hydroxypyrimidin-4(1H)-one] is 0.01 to 10 nM.

Take `COc1cccc(OC)c1-n1c(COC2CC2)nc(=O)c(C(=O)N2CCC(c3ccccc3F)C2)c1O` (single isomer, unassigned) [Example 13, 2-(cyclopropoxymethyl)-1-(2,6-dimethoxyphenyl)-5-(3-(2-fluorophenyl)pyrrolidine-1-carbonyl)-6-hydroxy-pyrimidin-4(1H)-one]: the EC50 fell in the range of 0.01 to 10 nM. In the case of `CCc1cccc(CC)c1-n1c(COC(C)C)nc(=O)c(C(=O)N2CCC(c3ccccn3)C2)c1O` (single isomer, unassigned) [Example 18, 1-(2,6-diethylphenyl)-6-hydroxy-2-(isopropoxymethyl)-5-(3-(pyridin-2-yl)pyrrolidine-1-carbonyl)pyrimidin-4(1H)-one], the EC50 lay in the range of 0.01 to 10 nM. On the same count and under the same terms, to `COc1cccc(OC)c1-n1c(COC2CC2)nc(=O)c(C(=O)N2CCC(c3ccccc3C)C2)c1O` (single isomer, unassigned) [Example 19, 2-(cyclopropoxymethyl)-1-(2,6-dimethoxyphenyl)-6-hydroxy-5-(3-(o-tolyl)pyrrolidine-1-carbonyl)pyrimidin-4(1H)-one] belongs 0.01 to 10 nM; to `COc1cccc(OC)c1-n1c(COC2CC2)nc(=O)c(C(=O)N2CCC(c3ccc(Cl)cc3)C2)c1O` (single isomer, unassigned) [Example 21, 5-(3-(4-chlorophenyl)pyrrolidine-1-carbonyl)-2-(cyclopropoxymethyl)-1-(2,6-dimethoxyphenyl)-6-hydroxypyrimidin-4(1H)-one], 0.01 to 10 nM.

In the case of `COc1cccc(OC)c1-n1c(COC2CC2)nc(=O)c(C(=O)N2CCC(c3ccccc3Cl)C2)c1O` (single isomer, unassigned) [Example 22, 5-(3-(2-chlorophenyl)pyrrolidine-1-carbonyl)-2-(cyclopropoxymethyl)-1-(2,6-dimethoxyphenyl)-6-hydroxypyrimidin-4(1H)-one], the EC50 was in the range of 0.01 to 10 nM. Same read-out and setting: the figure for `CCc1cccc(CC)c1-n1c(COC(C)C)nc(=O)c(C(=O)N2CCC(c3ccccc3F)C2)c1O` (single isomer, unassigned) [Example 25, 1-(2,6-diethylphenyl)-5-(3-(2-fluorophenyl)pyrrolidine-1-carbonyl)-6-hydroxy-2-(isopropoxymethyl) pyrimidin-4(1H)-one] is 0.01 to 10 nM; for `COc1cccc(OC)c1-n1c(COC(C)(C)C)nc(=O)c(C(=O)N2CCC(c3ccccc3Cl)C2)c1O` (single isomer, unassigned) [Example 42, 2-[(tert-butoxy)methyl]-5-[3-(2-chlorophenyl)pyrrolidine-1-carbonyl]-1-(2,6-dimethoxyphenyl)-6-hydroxy-1,4-dihydropyrimidin-4-one] it is 0.01 to 10 nM; for `CCCCc1nc(=O)c(C(=O)N2CCC(c3ccccc3Cl)C2)c(O)n1-c1c(OC)cccc1OC` (single isomer, unassigned) [Example 43, 2-butyl-5-[3-(2-chlorophenyl)pyrrolidine-1-carbonyl]-1-(2,6-dimethoxyphenyl)-6-hydroxy-1,4-dihydropyrimidin-4-one] it is 0.01 to 10 nM. The same measure, in the same setting: the figure for `COc1cccc(OC)c1-n1c(COC(C)(C)C)nc(=O)c(C(=O)N2CCC(c3ccccc3F)C2)c1O` (single isomer, unassigned) [Example 50, 2-[(tert-butoxy)methyl]-1-(2,6-dimethoxyphenyl)-5-[3-(2-fluorophenyl)pyrrolidine-1-carbonyl]-6-hydroxy-1,4-dihydropyrimidin-4-one] is 0.01 to 10 nM.

Still in this assay, the particulars now being: read-out: hAPJ cAMP EC50 Potency range; human APJ, intracellular cAMP accumulation.
For the molecule `CCCCc1nc(=O)c(C(=O)N2CCC(c3ccc(Cl)cc3)C2)c(O)n1-c1c(OC)cccc1OC` (single isomer, unassigned) [Example 45, 2-butyl-5-[3-(4-chlorophenyl)pyrrolidine-1-carbonyl]-1-(2,6-dimethoxyphenyl)-6-hydroxy-1,4-dihydropyrimidin-4-one], the EC50 is 0.01 to 10 nM. On to `CCCCc1nc(=O)c(C(=O)N2CCC(c3ccncc3)C2)c(O)n1-c1c(OC)cccc1OC` (single isomer, unassigned) [Example 48, 2-butyl-1-(2,6-dimethoxyphenyl)-6-hydroxy-5-[3-(pyridin-4-yl)pyrrolidine-1-carbonyl]-1,4-dihydropyrimidin-4-one], for which the EC50 was in the range of 0.01 to 10 nM.
